Experimental data reported in patent US10260079B2, “Method for producing ergothioneine by using soybean cake powder as nitrogen source in a seed medium” (TIANJIN INSTITUTE OF INDUSTRIAL BIOTECHNOLOGY, CHINESE …, priority 2014, dated 2019).
Where “and” joins values, the source holds several entries; their conditions need not be identical. Identical values can stand only once. Like-named read-outs stand apart in the source and are kept apart here.

Test system: Pleurotus ostreatus mycelia CGMCC No. 6232
Test: Shake-flask fermentation, total content of ergothioneine in the fermentation broth by HPLC
Format: cell-based
[1] = Pleurotus ostreatus, CGMCC6232, 360 h, read-out: content of ergothioneine improved compared with control group

## O=C(O)CC(O)(CC(=O)O)C(=O)O [citric acid]
Pleurotus ostreatus, CGMCC6232, 360 h, citric acid 0.4 g/L, read-out: content of ergothioneine improved compared with control group
  activation at 400 µg/mL: 10.4%
Citric acid 0.01 g/L added in fermentation medium
  Content of ergothioneine in fermentation broth: 126.9 ± 2.75 mg/L
Citric acid 0.05 g/L added in fermentation medium
  Content of ergothioneine in fermentation broth: 130.2 ± 1.31 mg/L
Citric acid 0.2 g/L added in fermentation medium
  Content of ergothioneine in fermentation broth: 135.4 ± 0.83 mg/L
Citric acid 0.4 g/L added in fermentation medium
  Content of ergothioneine in fermentation broth: 138.3 mg/L and 138.3 ± 2.49 mg/L
Citric acid 0.8 g/L added in fermentation medium
  Content of ergothioneine in fermentation broth: 128.4 ± 1.16 mg/L

## CC(=O)C(=O)O [pyruvic acid]
Pleurotus ostreatus, CGMCC6232, 360 h, pyruvic acid 2.2 g/L, read-out: content of ergothioneine improved compared with control group
  activation at 2200 µg/mL: 5.9%
Pyruvic acid 0.05 g/L added in fermentation medium
  Content of ergothioneine in fermentation broth: 127.4 ± 0.57 mg/L
Pyruvic acid 0.1 g/L added in fermentation medium
  Content of ergothioneine in fermentation broth: 128.6 ± 1.03 mg/L
Pyruvic acid 0.5 g/L added in fermentation medium
  Content of ergothioneine in fermentation broth: 130.4 ± 0.82 mg/L
Pyruvic acid 1.0 g/L added in fermentation medium
  Content of ergothioneine in fermentation broth: 131.9 ± 1.43 mg/L
Pyruvic acid 2.2 g/L added in fermentation medium
  Content of ergothioneine in fermentation broth: 132.7 mg/L and 132.7 ± 0.46 mg/L
Pyruvic acid 4.5 g/L added in fermentation medium
  Content of ergothioneine in fermentation broth: 128.7 ± 0.69 mg/L

## Cl.N [NH4Cl]
NH4Cl 0.5 g/L added in fermentation medium
  Content of ergothioneine in fermentation broth: 127 ± 1.87 mg/L
NH4Cl 1 g/L added in fermentation medium
  Content of ergothioneine in fermentation broth: 133.7 ± 1.04 mg/L
NH4Cl 2 g/L added in fermentation medium
  Content of ergothioneine in fermentation broth: 139.2 ± 1.55 mg/L
NH4Cl 4 g/L
  content of ergothioneine improved compared with control group: 24.4%
NH4Cl 4 g/L added in fermentation medium
  Content of ergothioneine in fermentation broth: 155.4 mg/L and 155.4 ± 2.68 mg/L
NH4Cl 8 g/L added in fermentation medium
  Content of ergothioneine in fermentation broth: 141.8 ± 0.68 mg/L
NH4Cl 12 g/L added in fermentation medium
  Content of ergothioneine in fermentation broth: 128.6 ± 3.53 mg/L

## Nc1nc2ncc(CNc3ccc(C(=O)N[C@@H](CCC(=O)O)C(=O)O)cc3)nc2c(=O)[nH]1 [folic acid]
Pleurotus ostreatus, CGMCC6232, 360 h, folic acid 0.64 g/L, read-out: content of ergothioneine improved compared with control group
  activation at 640 µg/mL: 25%
Folic acid 0.08 g/L added in fermentation medium
  Content of ergothioneine in fermentation broth: 121.4 ± 1.36 mg/L
Folic acid 0.16 g/L added in fermentation medium
  Content of ergothioneine in fermentation broth: 127.1 ± 2.24 mg/L
Folic acid 0.32 g/L added in fermentation medium
  Content of ergothioneine in fermentation broth: 136.9 ± 4.14 mg/L
Folic acid 0.64 g/L added in fermentation medium
  Content of ergothioneine in fermentation broth: 148.6 mg/L and 148.6 ± 1.54 mg/L
Folic acid 1.28 g/L added in fermentation medium
  Content of ergothioneine in fermentation broth: 143.8 ± 1.77 mg/L
Folic acid 2.56 g/L added in fermentation medium
  Content of ergothioneine in fermentation broth: 122.2 ± 3.03 mg/L

## N[C@@H](Cc1c[nH]cn1)C(=O)O [histidine]
Pleurotus ostreatus, CGMCC6232, 360 h, histidine 1 mmol/L, read-out: content of ergothioneine improved compared with control group
  activation at 1000 µM: 7.7%

## [Cl-].[Na+] [NaCl]
  content of ergothioneine improved compared with control group: 6.63%

## NCCCC[C@H](N)C(=O)O [lysine]
  Content of ergothioneine in fermentation broth: 124.8 ± 0.72 mg/L and 125.6 ± 2.03 mg/L and 128.9 ± 2.12 mg/L and 133.7 ± 1.51 mg/L and 135.1 ± 0.66 mg/L and 126.3 ± 2.67 mg/L
[1]
  activation at 5000 µg/mL: 13.4%

## span 80
Span 80 0.2 g/L added in fermentation medium
  Content of ergothioneine in fermentation broth: 124.7 ± 2.59 mg/L
Span 80 0.5 g/L added in fermentation medium
  Content of ergothioneine in fermentation broth: 156.3 ± 1.92 mg/L
Span 80 1 g/L added in fermentation medium
  Content of ergothioneine in fermentation broth: 175.1 ± 2.83 mg/L
Span 80 3 g/L
  content of ergothioneine improved compared with control group: 69.7%
Span 80 3 g/L added in fermentation medium
  Content of ergothioneine in fermentation broth: 196.5 mg/L and 196.5 ± 3.54 mg/L
Span 80 5 g/L added in fermentation medium
  Content of ergothioneine in fermentation broth: 184.3 ± 3.7 mg/L
Span 80 10 g/L added in fermentation medium
  Content of ergothioneine in fermentation broth: 129.6 ± 1.18 mg/L

## N=C(N)NCCC[C@H](N)C(=O)O [arginine]
[1]
  activation at 2000 µg/mL: 12.7%

## O=C(O)CCCc1c[nH]c2ccccc12 [indolebutyric acid]
Indolebutyric acid 0.1 mg/L added in fermentation medium
  Content of ergothioneine in fermentation broth: 130.9 ± 2.23 mg/L
Indolebutyric acid 0.5 mg/L added in fermentation medium
  Content of ergothioneine in fermentation broth: 138.4 ± 1.29 mg/L
Indolebutyric acid 1 mg/L
  content of ergothioneine improved compared with control group: 9.33%
Indolebutyric acid 1 mg/L added in fermentation medium
  Content of ergothioneine in fermentation broth: 140.6 mg/L and 140.6 ± 3.09 mg/L
Indolebutyric acid 2 mg/L added in fermentation medium
  Content of ergothioneine in fermentation broth: 137.7 ± 1.84 mg/L
Indolebutyric acid 4 mg/L added in fermentation medium
  Content of ergothioneine in fermentation broth: 132.8 ± 0.93 mg/L

## C[N+](C)(C)CC(=O)O [betaine]
Pleurotus ostreatus, CGMCC6232, 360 h, betaine 150 mmol/L, read-out: content of ergothioneine improved compared with control group
  activation at 150000 µM: 22%
Betaine 50 mmol/L added in fermentation medium
  Content of ergothioneine in fermentation broth: 125.3 ± 2.67 mg/L
Betaine 100 mmol/L added in fermentation medium
  Content of ergothioneine in fermentation broth: 130.1 ± 2.14 mg/L
Betaine 150 mmol/L added in fermentation medium
  Content of ergothioneine in fermentation broth: 146.6 mg/L and 146.6 ± 2.64 mg/L
Betaine 200 mmol/L added in fermentation medium
  Content of ergothioneine in fermentation broth: 129.9 ± 3.34 mg/L
Betaine 250 mmol/L added in fermentation medium
  Content of ergothioneine in fermentation broth: 124.8 ± 1.38 mg/L

## N[C@@H](CC(=O)O)C(=O)O [aspartic acid]
Pleurotus ostreatus, CGMCC6232, 360 h, aspartic acid 5 g/L, read-out: content of ergothioneine improved compared with control group
  activation at 5000 µg/mL: 14.1%
Aspartic acid 0.05 g/L added in fermentation medium
  Content of ergothioneine in fermentation broth: 124.1 ± 3.07 mg/L
Aspartic acid 0.5 g/L added in fermentation medium
  Content of ergothioneine in fermentation broth: 128 ± 2.51 mg/L
Aspartic acid 1 g/L added in fermentation medium
  Content of ergothioneine in fermentation broth: 130.1 ± 4.28 mg/L
Aspartic acid 5 g/L added in fermentation medium
  Content of ergothioneine in fermentation broth: 135.9 mg/L and 135.9 ± 3.64 mg/L
Aspartic acid 7 g/L added in fermentation medium
  Content of ergothioneine in fermentation broth: 127.9 ± 2.59 mg/L
Aspartic acid 9 g/L added in fermentation medium
  Content of ergothioneine in fermentation broth: 123.8 ± 2.88 mg/L

## N[C@@H](CCC(=O)O)C(=O)O [glutamic acid]
Pleurotus ostreatus, CGMCC6232, 360 h, glutamic acid 10 μmol/L, read-out: content of ergothioneine improved compared with control group
  activation at 10 µM: 9.1%
Glutamic acid 1 μmol/L added in fermentation medium
  Content of ergothioneine in fermentation broth: 123.6 ± 0.92 mg/L
Glutamic acid 5 μmol/L added in fermentation medium
  Content of ergothioneine in fermentation broth: 128.8 ± 1.19 mg/L
Glutamic acid 10 μmol/L added in fermentation medium
  Content of ergothioneine in fermentation broth: 131.2 mg/L and 131.2 ± 2.62 mg/L
Glutamic acid 50 μmol/L added in fermentation medium
  Content of ergothioneine in fermentation broth: 124 ± 1.72 mg/L
Glutamic acid 100 μmol/L added in fermentation medium
  Content of ergothioneine in fermentation broth: 122.7 ± 1.63 mg/L

## CC(C)C[C@H](N)C(=O)O [leucine]
Pleurotus ostreatus, CGMCC6232, 360 h, leucine 0.1 g/L, read-out: content of ergothioneine improved compared with control group
  activation at 100 µg/mL: 11.9%
Leucine 0.02 g/L added in fermentation medium
  Content of ergothioneine in fermentation broth: 127 ± 1.23 mg/L
Leucine 0.05 g/L added in fermentation medium
  Content of ergothioneine in fermentation broth: 129.4 ± 2.17 mg/L
Leucine 0.1 g/L added in fermentation medium
  Content of ergothioneine in fermentation broth: 133.3 mg/L and 133.3 ± 2.5 mg/L
Leucine 0.25 g/L added in fermentation medium
  Content of ergothioneine in fermentation broth: 130.8 ± 2.46 mg/L
Leucine 0.5 g/L added in fermentation medium
  Content of ergothioneine in fermentation broth: 125.5 ± 1.36 mg/L

## NH4NO3
  Content of ergothioneine in fermentation broth: 127.2 ± 1.18 mg/L and 134 ± 2.46 mg/L and 140.7 ± 3.74 mg/L and 148 ± 0.82 mg/L and 141.4 ± 1.98 mg/L and 129.7 ± 1.03 mg/L
  content of ergothioneine improved compared with control group: 18.5%

## CSCC[C@H](N)C(=O)O [methionine]
Pleurotus ostreatus, CGMCC6232, 360 h, methionine 15 mmol/L added on the 4th day, read-out: content of ergothioneine improved compared with control group
  activation at 15000 µM: 63.1%
Pleurotus ostreatus, CGMCC6232, 360 h, methionine 15 mmol/L, read-out: content of ergothioneine improved compared with control group
  activation at 15000 µM: 49.4%
Methionine 3 mmol/L added in fermentation medium
  Content of ergothioneine in fermentation broth: 127.3 ± 3.47 mg/L
Methionine 9 mmol/L added in fermentation medium
  Content of ergothioneine in fermentation broth: 154.8 ± 3.31 mg/L
Methionine 15 mmol/L added in fermentation medium
  Content of ergothioneine in fermentation broth: 179.6 mg/L and 179.6 ± 4.17 mg/L
Methionine 15 mmol/L, timing for adding 0 d (before the fermentation)
  Content of ergothioneine in fermentation broth: 179.3 ± 4.23 mg/L
Methionine 15 mmol/L, timing for adding 2 d
  Content of ergothioneine in fermentation broth: 190.5 ± 2.84 mg/L
Methionine 15 mmol/L, timing for adding 4 d
  Content of ergothioneine in fermentation broth: 202.6 mg/L and 202.6 ± 5.01 mg/L
Methionine 15 mmol/L, timing for adding 6 d
  Content of ergothioneine in fermentation broth: 174.9 ± 3.73 mg/L
Methionine 15 mmol/L, timing for adding 8 d
  Content of ergothioneine in fermentation broth: 160.3 ± 5.29 mg/L
Methionine 15 mmol/L, timing for adding 10 d
  Content of ergothioneine in fermentation broth: 149.3 ± 3.27 mg/L
Methionine 25 mmol/L added in fermentation medium
  Content of ergothioneine in fermentation broth: 168.5 ± 4.53 mg/L
Methionine 35 mmol/L added in fermentation medium
  Content of ergothioneine in fermentation broth: 153.7 ± 3.2 mg/L
Methionine 45 mmol/L added in fermentation medium
  Content of ergothioneine in fermentation broth: 126.9 ± 2.81 mg/L
